Measured values as given in article PMC10445283, “Boronate-Based Oxidant-Responsive Derivatives of Acetaminophen as Proinhibitors of Myeloperoxidase” (Chemical Research in Toxicology, 2023).
Several values for one entry are separate records, joined by “and”; a condition that tells them apart may be missing. Equal values may be shown once. Entries after “also recorded” stand apart in the source; their conditions may differ. Read-outs that look alike come from different tables or passages of the source.

Tests used:
[1] = biological target: T1, MPO from human neutrophils (Homo sapiens, UniProt P05164); test: Taurine N-chloramine/TMB assay of MPO-derived HOCl; assay type: biochemical; settings: for IC50: read-out: IC50, inhibition of MPO chlorinating activity
T1 construct: MPO from human neutrophils was obtained from Athens Research and Technology (Athens, GA); purchased Athens Research and Technology (Athens, GA); host or cells: human neutrophils (natural source)
T1 sequence (P05164 279-745 limits assumed): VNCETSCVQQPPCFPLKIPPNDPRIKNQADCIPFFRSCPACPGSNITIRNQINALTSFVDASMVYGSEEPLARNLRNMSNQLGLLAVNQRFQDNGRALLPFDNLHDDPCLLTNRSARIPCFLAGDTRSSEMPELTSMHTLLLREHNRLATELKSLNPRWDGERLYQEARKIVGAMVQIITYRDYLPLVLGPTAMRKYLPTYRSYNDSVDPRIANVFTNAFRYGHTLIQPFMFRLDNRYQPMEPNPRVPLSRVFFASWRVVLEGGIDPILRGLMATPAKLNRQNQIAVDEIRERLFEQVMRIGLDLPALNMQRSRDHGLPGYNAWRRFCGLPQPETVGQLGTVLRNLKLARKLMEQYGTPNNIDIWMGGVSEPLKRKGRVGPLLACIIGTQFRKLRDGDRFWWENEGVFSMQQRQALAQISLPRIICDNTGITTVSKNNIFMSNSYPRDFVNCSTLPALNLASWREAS
T1 sequence (P05164 165-273 limits assumed): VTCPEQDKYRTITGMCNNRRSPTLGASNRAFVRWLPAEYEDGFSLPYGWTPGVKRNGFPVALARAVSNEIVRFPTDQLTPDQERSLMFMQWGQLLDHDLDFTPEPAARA
Description: (§1) The performance of AM and its derivatives in inhibition of the MPO chlorinating activity was evaluated using dose–response curves. The half maximal inhibitory concentration (IC50) values were determined on the basis of three independent measurements using a dose–response fitting mode implemented in OriginPro 2020 (OriginLab Corp.) software. […] MPO stock solution was prepared according to the supplier’s instruction by dissolving lyophilized powder of MPO in distilled water and was stored at 6 °C. The desired MPO activity was obtained by dilution of the stock solution with phosphate buffer (50 mM, pH 7.4) containing sodium chloride (0.1 M).
The diluted MPO solution was pipetted directly into the 96-well plate (1.45 μL). […] The prepared 96-well plate was incubated for 5 min, and the reaction was started by the addition of 110 μL per well of 20 μM H2O2 solution in water. The plate was incubated for another 5 min, and then 200 μL of the incubation mixtures was transferred to another 96-well plate prefilled with catalase solution (10 kU/mL, 2 μL per well) to remove unreacted hydrogen peroxide and to stop the reaction. Next, 50 μL per well of developing reagent composed of 2 mM TMB, 100 μM potassium iodide, and 0.32 M acetate buffer (pH 5.4) was added, and absorbance at 645 nm was measured by a Varioscan LUX (Thermo Fisher Scientific) plate reader controlled by SkanIt 6.0.2 software. The typical chlorinating activity of MPO during the inhibition experiments was 5 nM/s HOCl as determined using a CBA oxidation-based assay.[18] The concentration of H2O2 in the stock solution was determined spectrophotometrically at 240 nm using the molar extinction coefficient ε = 43.6 M^–1 cm^–1. The chemical structures of the TMB and CBA probes, along with their oxidation products, are presented in Supplementary Figure S5.
The MPO inhibitory activity of AM was compared with its two synthesized boronated derivatives (Figure 1). […] The resulting N-chloramine is then quantified in a reaction with N,N,N′,N′-tetramethylbenzidine catalyzed by potassium iodide.[20] […]

[2] = biological target: T1, MPO from human neutrophils; test: NBD-TM oxidation assay of MPO-derived HOCl; assay type: biochemical; settings: for IC50: NBD-TM 20 μM, MPO 0.1 nM, H2O2 10 μM, NaCl 0.1 M, pH 7.4, 5 min, read-out: IC50, inhibition of MPO chlorinating activity
Description: as §1
MPO-derived HOCl was monitored by an NBD-TM probe according to the previously described procedure (Supplementary Figure S5).[18] Briefly, to 96-well plates containing MPO, NBD-TM (40 μM), the studied compounds, phosphate buffer (100 mM, pH 7.4), and sodium chloride (0.2 M), 20 μM solution of hydrogen peroxide was added to start the reaction (mixing ratio 1:1 v/v). Then, the changes of fluorescence intensity were measured by Varioscan LUX using λex = 475 nm, λem = 575 nm, and slits width of 12 nm. This enabled the direct monitoring of fluorescent NBD-TSO formation.
The MPO inhibitory activity of AM was compared with its two synthesized boronated derivatives (Figure 1). […] In the taurine-based assay, HOCl oxidizes taurine to taurine N-chloramine. The resulting N-chloramine is then quantified in a reaction with N,N,N′,N′-tetramethylbenzidine catalyzed by potassium iodide.[20] In the case of the NBD-TM probe, in the presence of HOCl, the sulfur atom in the probe is oxidized to sulfoxide, producing a highly fluorescent NBD-TSO.[18]

[3] = Competition kinetics with FLBA: reaction with ONOO–; assay type: physicochemical; settings: pH 7.4, 50 mM phosphate buffer
Description: (§2) The rate constants of the reactions of AMBB and AAPBA with ONOO^– and HOCl were determined by a competition kinetic method using FLBA as a reference compound.[18],[21],[22] In this approach, two pseudo-first-order reactions were assumed, a reaction between FLBA and the selected oxidant, ONOO^– or HOCl (eq 1), and between the investigated acetaminophen derivative (R-B(OH)2) and the oxidant (eq 2). Typically, the set of samples containing FLBA (20 μM), phosphate buffer (50 mM, pH 7.4), and AMBB or AAPBA (0–160 μM) in Eppendorf tubes was prepared. A concentrated basic solution of HOCl or ONOO^– was then added to the samples and rapidly mixed. The resulting concentration of an appropriate oxidant was 1.5 μM. Next, the samples were transferred to a 96-well plate, and the fluorescence intensity of the formed fluorescein was measured. The fluorescence intensity was followed with a Varioscan LUX plate reader using λex = 490 nm, λem = 515 nm, and slit widths of 12 nm.

[4] = Pseudo-first-order kinetics of reaction with H2O2 (UPLC); assay type: physicochemical; settings: pH 7.4, 20 mM phosphate buffer, 0.2–1 mM H2O2
Description: The rate constants for H2O2 and the studied boronic acids were determined directly under the pseudo-first-order conditions. Typically, the incubation mixtures contained boronic acid (20 μM), phosphate buffer (20 mM), CH3CN (2.5% v/v), and at least 10-fold excess of H2O2 (0.2–1 mM). The changes of analyte concentrations were followed by UPLC using a photodiode array detector (λmax = 250 ± 1.2 nm). On the basis of kinetic traces of AMBB and AAPBA decay (Supplementary Figure S6), the pseudo-first-order rate constants were determined. The second-order rate constants were calculated using the linear relationship between the determined pseudo-first-order rate constants and H2O2 concentrations.

[5] = Competition kinetics with FLBA: reaction with HOCl; assay type: physicochemical; settings: pH 7.4, 50 mM phosphate buffer
Description: as §2

[6] = Spontaneous conversion of AMB-OH into acetaminophen (UPLC); assay type: physicochemical
Description: Ultra-performance liquid chromatograph (UPLC) Acquity (Waters Ltd.) equipped with a photodiode array detector and combined with an LCT Premier XE (Waters Ltd.) mass spectrometer was used for the chromatographic separation and identification of AMBB and AAPBA oxidation products. Separation was performed on a reversed-phase C18 UPLC column (Waters Acquity UPLC BEH C18 […], 50 × 2.1 mm) equilibrated with a water/acetonitrile (CH3CN) (90/10 v/v) mobile phase containing 0.1% (v/v) trifluoroacetic acid (TFA). The analytes were separated at a flow rate of 0.3 mL/min. During the first 0.5 min of analysis, the composition of the mobile phase remained unchanged. […] The injection volume was 2 μL, the sample temperature was 20 °C, and the column temperature was 40 °C. The electrospray source was operated at positive ion mode using the following parameters: capillary voltage 2.8 kV, sample cone voltage 60 V, desolvation temp. 350 °C, source temp. 100 °C, desolvation gas flow 800 L/h, and cone gas flow 50 L/h. The MCP detector voltage was 2.5 kV.
Figure 4 Kinetics of the conversion of AMB-OH into acetaminophen (AM). AMB-OH was produced in situ by mixing 50 μM AMBB with 50 μM NaOCl in 20 mM phosphate buffer, pH 7.4. (A) UPLC peak areas of AMB-OH (open squares) and AM (open circles) as a function of incubation time. UPLC peak areas were integrated for chromatograms extracted at 250 ± 1.2 nm. (B) Scheme of the quinone methide moiety elimination by AMB-OH to form AM. TEXT PRINTED IN THE PICTURE: (A) AM: ^1k = (1.85 ± 0.01) × 10^-4 s^-1 | (A) AMB-OH: ^1k = (2.00 ± 0.01) × 10^-4 s^-1

[7] = Solubility in MPO assay mixture; assay type: physicochemical; settings: above 0.3 mM in assay mixture, pH 7.4, 3% methanol
Description: For AMBB, in the range of 0 nM to 0.3 mM, no inhibition of HOCl production was observed (Figure 1A).

MPO = biological target: T2, MPO (Homo sapiens, UniProt P05164); test: MPO-dependent HOCl generation (summary values); assay type: biochemical
T2 construct: MPO from human neutrophils was obtained from Athens Research and Technology (Athens, GA); purchased Athens Research and Technology (Athens, GA); host or cells: human neutrophils (natural source)
T2 sequence (P05164 279-745 limits assumed): as the sequence (P05164 279-745 limits assumed) above
T2 sequence (P05164 165-273 limits assumed): as the sequence (P05164 165-273 limits assumed) above
Description: as §1

COX-2 = settings: reference not given; read-out: IC50 for the inhibition of COX-2; cited from earlier work
[8] = parameters: method as in PMID 3395354; settings: pH 7; cited from earlier work
[9] = parameters: method as in PMID 34884784; settings: previously reported; cited from earlier work
[10] = cited from earlier work
[11] = abstract summary, read-out: IC50 toward MPO-dependent HOCl generation

CC(=O)Nc1ccc(B(O)O)cc1 [AAPBA, 4-Acetamidophenylboronic Acid]
IC50 [1]: 420 ± 60 µM
IC50 [2]: 394 ± 2 µM
second-order rate constant of reaction with ONOO– [3]: (1.1 ± 0.3) × 10^6 M^–1 s^–1
second-order rate constant of reaction with H2O2 [4]: 1.9 ± 0.1 M^–1 s^–1
second-order rate constant of reaction with HOCl [5]: (1.72 ± 0.01) × 10^4 M^–1 s^–1

CC(=O)Nc1ccc(OCc2ccc(O)cc2)cc1 [AMB-OH, N-[4-(4-hydroxybenzyloxy)phenyl]acetamide]
time to complete conversion into AM ([6]; pH 7.4, room temperature): 5 h
half-life ([6]; phosphate buffer, pH 7.4, pH 7.4, room temperature, read-out: half-life time (converted)): 1 h

CC(=O)Nc1ccc(OCc2ccc(B(O)O)cc2)cc1 [AMBB, (4-((4-Acetamidophenoxy)methyl)phenyl)-boronic Acid]
inhibition of HOCl production ([1]; in the presence of taurine, 0 nM to 0.3 mM compound): no inhibition; also recorded: not show any inhibitory activity; also recorded: failed to inhibit the chlorination cycle
inhibitory effect on HOCl production activity of MPO ([2]; no taurine, effect seen in the 0.1–0.3 mM range): shows the inhibitory effects; also recorded: exhibits inhibitory activity
solubility [7]: limited solubility and precipitation
IC50 (MPO; [11]): > 300 µM
second-order rate constant of reaction with H2O2 [4]: 1.67 M^–1 s^–1 and 1.67 ± 0.02 M^–1 s^–1

CC(=O)Nc1ccc(O)cc1 [Acetaminophen, N-(4-hydroxyphenyl)acetamide]
first-order rate constant of AM build-up from AMB-OH ([6]; pH 7.4, 20 mM phosphate buffer): (1.85 ± 0.01) × 10^-4 s^-1
IC50 [1]: 153 ± 9 µM
IC50 [2]: 135 ± 9 µM
IC50 (MPO; [11]): 140 µM
IC50 (MPO; rounded value in discussion, read-out: IC50 for the inhibition of MPO): 150 µM
electrode potential E°′ (AM-OH/AM-O·,H+ redox couple) [8]: 0.71 ± 0.01 V

O=C(O)c1ccccc1-c1c2ccc(=O)cc-2oc2cc(B(O)O)ccc12 [FLBA, reference compound]
rate constant of reaction with ONOO– [9]: 1.0 × 10^6 M^–1 s^–1
rate constant of reaction with HOCl ([10]; previously reported): 1.11 × 10^4 M^–1 s^–1

O=c1[nH]c(=O)c2[nH]c(=O)[nH]c2[nH]1 [uric acid]
bimolecular rate constant of reaction with HOCl ([10]; pH 7): 3 × 10^5 M^–1 s^–1
